One data set concerns the target T1, dopamine-D2 receptors (Rattus norvegicus, UniProt P61169).
T1 construct: labels dopamine receptors in rat pituitary and brain; from tissue; host or cells: rat pituitary and brain (per the title of the cited method)
Briefly: In vitro affinity for dopamine-D2 receptors ([3H]-spiroperidol receptor binding assay). To be noted: average values from three independent experiments. On the procedure: The affinity of the compounds of the invention for dopamine-D2 receptors and serotonine reuptake sites was determined as described above. […] Pharmacokinetic, pharmacodynamic, and other considerations may alter the dose actually administered to a higher or lower value. The dosage expediently administered is 0.001-1000 mg/kg, preferably 0.1-100 mg/kg of patient's bodyweight.
(§1) The results in the table below were obtained according to the methods described above. Binding data are average values from three independent experiments.

The next data set deals with dopamine D2 receptors. Kind of data set: Antagonism of apomorphine-induced climbing behaviour in mice (APO-climb). To be noted: Mus musculus, po, read-out: in vivo activity Dopamine-D2 APO-climb* ED50 mg/kg po.
The test system of another data set is serotonin reuptake. Briefly: Potentiation of 5-HTP induced behaviour in mice. To be noted: Mus musculus, po, read-out: in vivo activity 5-HT reuptake 5-HTP** ED50 mg/kg po. The source says: The compounds show activity as antagonists at dopamine D2 receptors as they potentially antagonize apomorphine-induced climbing behaviour in mice (B. Costall et al., ‘Climbing behaviour induced by apomorphine in mice: a potential model for the detection of neuroleptic activity’, Eur. J. Pharmacol., 1978, 1, 39-50). The compounds also show activity as inhibitors of serotonin reuptake, as they potentiate 5-HTP induced behaviour in mice (B. L. Jacobs., ‘An animal behaviour model for studying central serotonergic synapses’, Life Sci., 1976, 19(6), 777-785). The compounds are active in therapeutic models sensitive to clinically relevant antipsychotics (e.g. the conditioned avoidance response; Van der Heyden & Bradford, Behav. Brain Res., 1988, 31:61-67) and antidepressants or anxiolytics (e.g. suppression of stress-induced vocalization; van der Poel et al., Psychopharmacology, 1989, 97: 147-148). In contrast to clinically relevant dopamine D2 receptor antagonists the described compounds have a low propensity to induce catalepsy in rodents and as such are likely to induce less extrapyramidal side effects than existing antipsychotic agents. The inhibitory activity of serotonin reuptake inherent in these compounds may be responsible for the therapeutic effects observed in behavioural models sensitive to either antidepressants or anxiolytics. The compounds can be used for the treatment of affections or diseases of the central nervous system caused by disturbances in either the dopaminergic or serotonergic systems, for example: aggression, anxiety disorders, autism, vertigo, depression, disturbances of cognition or memory, Parkinson's disease, and in particular schizophrenia and other psychotic disorders.

In the next data set the target is T2, serotonin reuptake sites (Rattus norvegicus, UniProt P31652).
T2 construct: from tissue; host or cells: rat cortical membranes (per the title of the cited method)
Kind of data set: In vitro affinity for serotonin reuptake sites ([3H]-paroxetine receptor binding assay). To be noted: average values from three independent experiments; read-out: in vitro affinity 5-HT reuptake binding Ki. On the procedure:
The affinity of the compounds of the invention for dopamine-D2 receptors and serotonine reuptake sites was determined as described above. From the binding affinity measured for a given compound of formula (1), one can estimate a theoretical lowest effective dose. […] Converting that concentration to mg of compound per kg of patient yields a theoretical lowest effective dose, assuming ideal bioavailability. Pharmacokinetic, pharmacodynamic, and other considerations may alter the dose actually administered to a higher or lower value. The dosage expediently administered is 0.001-1000 mg/kg, preferably 0.1-100 mg/kg of patient's bodyweight.
as §1

Counter-ions that a name gives are not always drawn.

T1 sequence (P61169 whole entry): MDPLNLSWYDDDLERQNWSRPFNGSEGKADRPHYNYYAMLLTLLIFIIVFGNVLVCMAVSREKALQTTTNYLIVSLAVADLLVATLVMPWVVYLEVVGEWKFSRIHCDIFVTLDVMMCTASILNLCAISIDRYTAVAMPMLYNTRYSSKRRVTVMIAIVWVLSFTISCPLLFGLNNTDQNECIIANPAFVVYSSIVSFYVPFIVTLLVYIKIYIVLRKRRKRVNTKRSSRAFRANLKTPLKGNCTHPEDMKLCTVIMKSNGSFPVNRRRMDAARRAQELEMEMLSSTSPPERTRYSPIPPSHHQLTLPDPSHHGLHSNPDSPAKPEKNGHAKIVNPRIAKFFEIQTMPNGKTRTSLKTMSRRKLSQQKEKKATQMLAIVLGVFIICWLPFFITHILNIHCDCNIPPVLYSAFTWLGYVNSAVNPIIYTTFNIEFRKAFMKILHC
T2 sequence (P31652 whole entry): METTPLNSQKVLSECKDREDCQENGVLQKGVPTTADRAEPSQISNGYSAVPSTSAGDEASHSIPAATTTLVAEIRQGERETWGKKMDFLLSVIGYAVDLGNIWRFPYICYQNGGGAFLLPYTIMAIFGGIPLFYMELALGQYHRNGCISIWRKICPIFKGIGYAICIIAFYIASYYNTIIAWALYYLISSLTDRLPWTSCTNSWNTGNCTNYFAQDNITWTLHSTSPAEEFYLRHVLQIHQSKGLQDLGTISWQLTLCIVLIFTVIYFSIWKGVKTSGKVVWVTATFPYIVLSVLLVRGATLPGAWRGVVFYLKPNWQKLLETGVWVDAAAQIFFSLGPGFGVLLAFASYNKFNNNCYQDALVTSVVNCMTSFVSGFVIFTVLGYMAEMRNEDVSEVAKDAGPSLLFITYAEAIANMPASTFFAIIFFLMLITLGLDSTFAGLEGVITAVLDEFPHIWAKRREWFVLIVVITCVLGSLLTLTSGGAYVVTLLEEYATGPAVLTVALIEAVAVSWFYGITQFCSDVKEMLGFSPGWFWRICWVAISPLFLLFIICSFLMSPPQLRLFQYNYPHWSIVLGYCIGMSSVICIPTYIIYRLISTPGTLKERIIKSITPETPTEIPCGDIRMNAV

For `c1cc2c(c(N3CCN(CCCc4c[nH]c5ccccc45)CC3)c1)OCCO2` [Compound 5b, 3-{3-[4-(2,3-Dihydro-benzo[1,4]dioxin-5-yl)-piperazin-1-yl]-propyl}-1H-indole], the melting point lay in the range of 150 to 152 °C. The Ki at dopamine-D2 receptors was 21 ± 9.9 nM. Also, in the data set with dopamine D2 receptors, the ED50 was 10 mg/kg. The ED50 in the data set with serotonin reuptake was 22 mg/kg.
Consider `Clc1ccc2[nH]cc(CCCN3CCN(c4cccc5c4OCCO5)CC3)c2c1` [Compound 5j, 3-{3-[4-(2,3-Dihydro-benzo[1,4]dioxin-5-yl)-piperazin-1-yl]-propyl}-5-chloro-1H-indole], for which the Ki was 31.6 ± 16 nM at dopamine-D2 receptors and 1.4 ± 0.7 nM at serotonin reuptake sites.
As to `c1cc2c(c(N3CCN(CCCCCc4c[nH]c5ccccc45)CC3)c1)OCCO2` [Compound 5c, 3-{5-[4-(2,3-Dihydro-benzo[1,4]dioxin-5-yl)-piperazin-1-yl]-pentyl}-1H-indole], the Ki on dopamine-D2 receptors was 9.1 ± 1.8 nM.
On the same count and under the same terms, the result for `COc1ccc2[nH]cc(CCCN3CCN(c4cccc5c4OCCO5)CC3)c2c1` [Compound 5h, 3-{3-[4-(2,3-Dihydro-benzo[1,4]dioxin-5-yl)-piperazin-1-yl]-propyl}-5-methoxy-1H-indole] reads 5 ± 4 nM.
The molecule `Fc1ccc2c(CCCN3CCN(c4cccc5c4OCCO5)CC3)c[nH]c2c1` (as salt: fumaric acid salt) [Compound 5f, 3-{3-[4-(2,3-Dihydro-benzo[1,4]dioxin-5-yl)-piperazin-1-yl]-propyl}-6-fluoro-1H-indole] yielded a melting point of 205 to 206 °C.
For `Fc1cccc2c(CCCN3CCN(c4cccc5c4OCCO5)CC3)c[nH]c12` [Compound 5g, 3-{3-[4-(2,3-Dihydro-benzo[1,4]dioxin-5-yl)-piperazin-1-yl]-propyl}-7-fluoro-1H-indole], the inhibition constant (Ki) on dopamine-D2 receptors was found to be 10.6 ± 4 nM. Further, the ED50 with serotonin reuptake turned out to be 28.4 mg/kg.
`Clc1ccc2c(CCCN3CCN(c4cccc5c4OCCO5)CC3)c[nH]c2c1` [Compound 5k, 3-{3-[4-(2,3-Dihydro-benzo[1,4]dioxin-5-yl)-piperazin-1-yl]-propyl}-6-chloro-1H-indole] showed a Ki on dopamine-D2 receptors of 2.1 ± 1 nM. In addition, the ED50 turned out to be 4.5 mg/kg in the data set with dopamine D2 receptors and 86 mg/kg in the data set with serotonin reuptake.
For `Cc1ccc2[nH]cc(CCCN3CCN(c4cccc5c4OCCO5)CC3)c2c1` [Compound 5m, 3-{3-[4-(2,3-Dihydro-benzo[1,4]dioxin-5-yl)-piperazin-1-yl]-propyl}-5-methyl-1H-indole], the Ki on serotonin reuptake sites came to 1.3 ± 0.9 nM.
Regarding `Fc1ccc2c(CCCN3CCN(c4cccc5c4OCCO5)CC3)c[nH]c2c1` [Compound 5f, 3-{3-[4-(2,3-Dihydro-benzo[1,4]dioxin-5-yl)-piperazin-1-yl]-propyl}-6-fluoro-1H-indole], the values for the ED50 in the data set with dopamine D2 receptors and with serotonin reuptake were 9 mg/kg and 30 mg/kg, respectively.
Turning to `Clc1ccc2[nH]cc(CCCN3CCN(c4cccc5c4OCCO5)CC3)c2c1` (as salt: fumaric acid salt) [Compound 5j, 3-{3-[4-(2,3-Dihydro-benzo[1,4]dioxin-5-yl)-piperazin-1-yl]-propyl}-5-chloro-1H-indole], the melting point lay within 61 to 63 °C.
In turn, `c1cc2c(c(N3CCN(CCCc4c[nH]c5ccccc45)CC3)c1)CCCO2` [Compound 14, 3-[3-(4-chroman-5-yl-piperazine-1-yl)-propyl]-1H-indole] yielded a Ki on dopamine-D2 receptors of 20.3 ± 2.7 nM.
On to `Fc1ccc2[nH]cc(CCCN3CCN(c4cccc5c4OCCO5)CC3)c2c1` [Compound 5e, 3-{3-[4-(2,3-Dihydro-benzo[1,4]dioxin-5-yl)-piperazin-1-yl]-propyl}-5-fluoro-1H-indole], for which the affinity at dopamine-D2 receptors, expressed as Ki, was 19 ± 3 nM. The ED50 with serotonin reuptake was 2 mg/kg.
`Cc1ccc2[nH]cc(CCCN3CCN(c4cccc5c4OCCO5)CC3)c2c1` (as salt: fumaric acid salt) [Compound 5m, 3-{3-[4-(2,3-Dihydro-benzo[1,4]dioxin-5-yl)-piperazin-1-yl]-propyl}-5-methyl-1H-indole]: the melting point was 215 to 217 °C (dec.).
On the same count and under the same terms, the result for `c1cc2c(c(N3CCN(Cc4c[nH]c5ccccc45)CC3)c1)OCCO2` [Compound 5a, 3-[4-(2,3-Dihydro-benzo[1,4]dioxin-5-yl)-piperazin-1-yl-methyl]-1H-indole] reads 85 to 86 °C.
On dopamine-D2 receptors, `Cc1cccc2c(CCCN3CCN(c4cccc5c4OCCO5)CC3)c[nH]c12` [Compound 5n, 3-{3-[4-(2,3-Dihydro-benzo[1,4]dioxin-5-yl)-piperazin-1-yl]-propyl}-7-methyl-1H-indole] gave a Ki of 15.9 ± 4.7 nM.
Still for that read-out and setting: the result for `Clc1cccc2c(CCCN3CCN(c4cccc5c4OCCO5)CC3)c[nH]c12` [Compound 5l, 3-{3-[4-(2,3-Dihydro-benzo[1,4]dioxin-5-yl)-piperazin-1-yl]-propyl}-7-chloro-1H-indole] reads 15.5 ± 5.4 nM.
In turn, `Fc1cccc2[nH]cc(CCCN3CCN(c4cccc5c4OCCO5)CC3)c12` [Compound 5d, 3-{3-[4-(2,3-Dihydro-benzo[1,4]dioxin-5-yl)-piperazin-1-yl]-propyl}-4-fluoro-1H-indole] gave a melting point of 207 to 208 °C. The molecule further yielded a Ki on dopamine-D2 receptors of 8.1 ± 3.1 nM. The ED50 in the data set with dopamine D2 receptors was 13 mg/kg. Moreover, the ED50 in the data set on serotonin reuptake worked out at 32 mg/kg.
In turn, `Clc1cccc2[nH]cc(CCCN3CCN(c4cccc5c4OCCO5)CC3)c12` [Compound 5i, 3-{3-[4-(2,3-Dihydro-benzo[1,4]dioxin-5-yl)-piperazin-1-yl]-propyl}-4-chloro-1H-indole] yielded a Ki on dopamine-D2 receptors of 24 ± 3 nM.

For orientation: Ki means the equilibrium dissociation constant of an inhibitor or competing ligand from its target. In general, melting point refers to the temperature of the solid-liquid transition.

These data come from patent US20060122175A1, “Benzdioxane piperazine derivatives with a combination of affinity for dopamine-D2 receptors and serotonin reuptake sites” (SOLVAY PHARMACEUTICALS B.V., priority 2004, published 2006).
